The structures appear in SMILES notation.

The target of one assay is T1, eIF4F (Mus musculus, UniProt P60843).
T1 construct: endogenous in cells; host or cells: Krebs-2 cell-free translation extract
The assay can be described thus: trans-inhibition and eIF4F rescue in Krebs-2 translation extracts. It counts as biochemical. Conditions: for effect of added eIF4F on compound-induced inhibition (in words): 100 nM compound, eIF4F 10 nM; for effect of m7GpppG-(AG)10 competitor RNA on (UC)10-FF/HCV/Ren translation (in words): 25-fold molar excess competitor. The source says: In addition to a primary effect on translation of the target mRNA to which eIF4F is clamped by the rocaglate, this retention is predicted to lead to a reduction in the limiting eIF4F pool available for ribosome recruitment and could exert a trans-inhibitory effect on mRNAs that are not directly-targeted by rocaglates (i.e., absence of polypurine regions in their 5′ leader regions). To test this, we programmed in vitro translation reactions with (UC)10-FF/HCV/Ren mRNA which we found to be unresponsive to CR-1-31-B (23) and RocA (2) (FIG. 22). These were then supplemented with a 25-fold molar excess m^7GpppG-(AG)10 (SEQ ID NO: 10) or ApppG-(AG)10 (SEQ ID NO: 11) competitor RNA (FIG. 30B). […] In contrast, addition of ApppG-(AG)10 (SEQ ID NO: 11) and CR-1-31-B (23) or RocA (2) had little impact on translation of (UC)10-FF/HCV/Ren mRNA, indicating this to be a cap-dependent phenomenon (FIG. 30C, blue dotted line). If rocaglates decrease the pool of active eIF4F complexes, we posit that the addition of eIF4F to translation extracts should rescue rocaglate-mediated inhibition.
FIGS. 30A-30B. Rocaglates exert effects on eIF4F activity. 30A. RPDs performed with m^7GpppG-capped RNA incubated in the presence of retic lysate and either vehicle or 500 nM rocaglate. 30B. Schematic diagram showing assay assessing trans-inhibition of rocaglates. 30C. The presence of m^7GpppG capped, but not ApppG capped, purine-rich RNAs sensitizes the rocaglate-unresponsive m^7GpppG(UC)10-FF/HCV/Ren reporter to inhibition. Translation reactions were performed in Krebs-2 extracts with 10 nM of m^7GpppG(UC)10-FF/HCV/Ren reporter and 250 nM of competitor RNA. Reactions were incubated at 30° C. for 60 min prior to luciferase measurement. n=3±SD. 30D. The addition of recombinant eIF4F rescues rocaglate mediated translation inhibition. The m^7GpppG(AG)10-FF/HCV/Ren reporter was added to Krebs-2 translation extracts in the presence eIF4F and 100 nM of the indicated compound. Reactions were incubated at 30° C. for 60 min prior to luciferase measurement. n≥3, ±SEM

A further assay addresses T2, eIF4A1 (Oryctolagus cuniculus, UniProt P29562).
T2 construct: Rabbit reticulocyte lysates (Promega) were pre-incubated with 500 nM of the indicated compound; tissue Promega; host or cells: rabbit reticulocyte lysate
The assay can be described thus: RNA pulldowns (RPDs) with biotinylated RNA baits in translation extracts. It counts as binding, Rabbit. Conditions: 500 nM rocaglate, retic lysate. How it is done: To determine the ability of rocaglates to recruit eIF4A to RNA in translation extracts, RNA pulldowns (RPDs) using 30 nt polypurine—or polypyrimidine-biotinylated RNA baits were performed. RNA baits were added to in vitro translation extracts in the presence or absence of rocaglate followed by purification using immobilized streptavidin. […] When the RPDs were performed using ApppG-capped RNA with purified eIF4A1 or eIF4F rather than translation extracts, an increase in eIF4A1:polypyrimidine RNA association with silvestrol was not observed (FIG. 25B).
RNA Pull Down (RPD) Experiments. Rabbit reticulocyte lysates (Promega) were pre-incubated with 500 nM of the indicated compound for 15 minutes at 30° C. prior to the addition of m7GpppG- or ApppG-capped biotinylated RNAs (added to a final concentration of 1 μM biotinylated RNA bait). The reactions were incubated for an additional 15 minutes at 30° C. and then diluted 10× with ice cold wash buffer (0.5% v/v NP-40, 50 mM HEPES (pH 7.3), 150 mM KCl, 2 mM EDTA, 2 mM MgC2,). Magnetic streptavidin beads (NEB) were used to capture the biotinylated RNA baits and the reactions were incubated end over end for 1 hour at 4° C. The beads were then washed three times with ice cold wash buffer (10 minutes per wash) and the RNA bound proteins were eluted by digesting with 50 U of RNaseI (Ambion, AM2294) for 15 minutes at 37° C. Eluted proteins were analyzed by Western blotting.
FIGS. 25A-25B. […] 25A. RPDs performed with the indicated m^7GpppG- or ApppG-capped RNA species incubated in the presence of retic lysate and either vehicle or 500 nM rocaglate. 25B. RPDs performed with m^7GpppG-capped RNA species incubated in the presence of recombinant eIF4A (125 nM) eIF4F or Krebs-2 extracts and either vehicle or 500 nM silvestrol.

T1 sequence (P60843 2-406 limits assumed): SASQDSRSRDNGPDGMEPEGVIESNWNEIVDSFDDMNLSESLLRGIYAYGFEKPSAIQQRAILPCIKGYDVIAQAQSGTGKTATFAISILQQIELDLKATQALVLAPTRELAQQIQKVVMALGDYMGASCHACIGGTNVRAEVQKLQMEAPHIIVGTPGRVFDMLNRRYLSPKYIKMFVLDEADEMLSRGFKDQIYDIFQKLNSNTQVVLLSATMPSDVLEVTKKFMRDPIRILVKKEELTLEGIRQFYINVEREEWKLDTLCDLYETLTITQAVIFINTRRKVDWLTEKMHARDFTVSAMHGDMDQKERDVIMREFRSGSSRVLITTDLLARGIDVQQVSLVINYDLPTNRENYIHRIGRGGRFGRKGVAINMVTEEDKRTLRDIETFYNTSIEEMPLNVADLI
T1 sequence (P63073 2-217 partner limits assumed): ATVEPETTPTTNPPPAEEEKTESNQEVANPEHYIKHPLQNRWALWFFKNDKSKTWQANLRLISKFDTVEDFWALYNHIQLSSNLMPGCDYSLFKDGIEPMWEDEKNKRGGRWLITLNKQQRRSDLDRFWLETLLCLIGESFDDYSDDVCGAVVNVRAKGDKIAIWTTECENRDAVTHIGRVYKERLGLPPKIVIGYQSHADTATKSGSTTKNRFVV
T1 sequence (Q6NZJ6 whole entry partner): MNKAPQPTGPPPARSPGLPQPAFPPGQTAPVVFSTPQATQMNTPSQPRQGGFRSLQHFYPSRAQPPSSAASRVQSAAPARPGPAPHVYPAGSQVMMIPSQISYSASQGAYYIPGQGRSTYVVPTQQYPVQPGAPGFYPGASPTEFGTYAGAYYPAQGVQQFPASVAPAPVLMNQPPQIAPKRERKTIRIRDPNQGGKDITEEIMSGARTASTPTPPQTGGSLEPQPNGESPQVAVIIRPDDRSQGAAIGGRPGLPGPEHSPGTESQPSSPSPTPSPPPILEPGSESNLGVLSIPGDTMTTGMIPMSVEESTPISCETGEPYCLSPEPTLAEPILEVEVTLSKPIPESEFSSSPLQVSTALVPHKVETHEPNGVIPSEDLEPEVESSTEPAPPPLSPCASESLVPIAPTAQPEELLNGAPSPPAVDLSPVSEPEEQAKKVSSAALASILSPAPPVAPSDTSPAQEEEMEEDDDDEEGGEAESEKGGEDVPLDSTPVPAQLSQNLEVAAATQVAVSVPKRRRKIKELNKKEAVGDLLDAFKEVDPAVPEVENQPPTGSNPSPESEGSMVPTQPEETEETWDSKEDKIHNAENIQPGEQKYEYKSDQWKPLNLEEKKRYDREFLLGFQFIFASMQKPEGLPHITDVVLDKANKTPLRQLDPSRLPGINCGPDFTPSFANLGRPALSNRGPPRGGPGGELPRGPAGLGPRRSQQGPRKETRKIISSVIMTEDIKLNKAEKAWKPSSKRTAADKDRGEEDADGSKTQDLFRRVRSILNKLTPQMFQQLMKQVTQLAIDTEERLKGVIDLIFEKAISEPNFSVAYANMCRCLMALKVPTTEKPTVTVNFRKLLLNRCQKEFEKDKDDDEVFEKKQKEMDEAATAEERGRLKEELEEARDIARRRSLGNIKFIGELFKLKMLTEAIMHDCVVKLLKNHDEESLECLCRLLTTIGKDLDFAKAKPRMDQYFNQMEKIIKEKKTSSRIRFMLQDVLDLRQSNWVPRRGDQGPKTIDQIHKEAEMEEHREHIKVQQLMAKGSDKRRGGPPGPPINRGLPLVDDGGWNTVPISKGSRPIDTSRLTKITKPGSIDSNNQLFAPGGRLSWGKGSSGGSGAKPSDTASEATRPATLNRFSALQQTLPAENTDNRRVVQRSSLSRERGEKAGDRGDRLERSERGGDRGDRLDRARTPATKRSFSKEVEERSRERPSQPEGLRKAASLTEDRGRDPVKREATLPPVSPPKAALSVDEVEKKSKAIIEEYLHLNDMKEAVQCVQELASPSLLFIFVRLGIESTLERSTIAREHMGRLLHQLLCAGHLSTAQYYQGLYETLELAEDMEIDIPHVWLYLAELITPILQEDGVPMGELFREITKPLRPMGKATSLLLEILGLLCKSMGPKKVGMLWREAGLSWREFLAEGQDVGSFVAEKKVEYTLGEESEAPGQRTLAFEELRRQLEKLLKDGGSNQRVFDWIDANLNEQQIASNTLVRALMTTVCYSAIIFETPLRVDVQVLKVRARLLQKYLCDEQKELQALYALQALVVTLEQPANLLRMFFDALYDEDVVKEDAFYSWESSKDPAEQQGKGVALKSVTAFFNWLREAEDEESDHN
T2 sequence (P29562 whole entry): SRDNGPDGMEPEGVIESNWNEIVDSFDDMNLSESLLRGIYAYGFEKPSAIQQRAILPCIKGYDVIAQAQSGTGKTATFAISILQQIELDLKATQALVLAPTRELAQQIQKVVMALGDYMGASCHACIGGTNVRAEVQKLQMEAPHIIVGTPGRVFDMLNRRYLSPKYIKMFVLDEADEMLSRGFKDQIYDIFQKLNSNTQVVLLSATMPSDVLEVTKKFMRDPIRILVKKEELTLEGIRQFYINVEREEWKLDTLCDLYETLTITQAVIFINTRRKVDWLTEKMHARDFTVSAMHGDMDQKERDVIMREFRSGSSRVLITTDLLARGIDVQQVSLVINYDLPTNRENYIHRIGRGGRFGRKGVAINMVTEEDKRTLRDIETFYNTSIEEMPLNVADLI

As to `CONC(=O)[C@H]1[C@@H](O)[C@@]2(O)c3c(OC)cc(OC)cc3O[C@@]2(c2ccc(OC)cc2)[C@@H]1c1ccccc1` [CR-1-31-B], at eIF4F, the “effect of added eIF4F on compound-induced inhibition (in words)” value is “partially rescue” and the “effect of m7GpppG-(AG)10 competitor RNA on (UC)10-FF/HCV/Ren translation (in words)” value is “sensitized (UC)10-FF/HCV/Ren mRNA to inhibition”. Moreover, on eIF4A1, the “recruitment of eIF4A1 to RNA baits (in words)” value (shortened to “recruitment of eIF4A1”) was “eIF4A1 was recruited to the purine-rich mRNA template in a cap-independent manner”.

As for `COc1ccc([C@@]23Oc4cc(OC)cc(OC)c4[C@]2(O)[C@H](O)[C@H](C(=O)N(C)C)[C@H]3c2ccccc2)cc1` [RocA, rocaglamide A], the “effect of m7GpppG-(AG)10 competitor RNA on (UC)10-FF/HCV/Ren translation (in words)” value on eIF4F is recorded as “sensitized (UC)10-FF/HCV/Ren mRNA to inhibition”. Also, the “recruitment of eIF4A1” value on eIF4A1 is “eIF4A1 was recruited to the purine-rich mRNA template in a cap-independent manner”.

Turning to `COC(=O)[C@H]1[C@@H](O)[C@@]2(O)c3c(OC)cc(O[C@@H]4O[C@@H]([C@H](O)CO)CO[C@H]4OC)cc3O[C@@]2(c2ccc(OC)cc2)[C@@H]1c1ccccc1` [silvestrol], on eIF4F, the “effect of added eIF4F on compound-induced inhibition (in words)” value is “partially rescue”. Further, the “recruitment of eIF4A1” value on eIF4A1 is “induced eIF4A1 binding to both the polypurine and polypyrimidine baits”.

Source of the values: US11279708B2, “Amidino- and amino-rocaglates as novel translation inhibitors and anticancer agents” (priority 2019, dated 2022).
